Source: ChEMBL document CHEMBL5244230, “Artemisinin-derived hybrids and their anticancer activity” (Eur J Med Chem, 2020)

Key:
Type in all cases: functional, cell-based
HT-29 = test: Antiproliferative activity against human HT-29 cells assessed as reduction in cell viability measured for 72 hrs by MTT assay; settings: HT-29, 72 h
A549 = test: Antiproliferative activity against human A549 cells assessed as reduction in cell viability measured for 72 hrs by MTT assay; settings: A549, 72 h
MDA-MB-231 = test: Antiproliferative activity against human MDA-MB-231 cells assessed as reduction in cell viability measured for 72 hrs by MTT assay; settings: MDA-MB-231, 72 h
HeLa = test: Antiproliferative activity against human HeLa cells assessed as reduction in cell viability measured for 72 hrs by MTT assay
NCI-H460 = test: Antiproliferative activity against human NCI-H460 cells assessed as reduction in cell viability measured for 72 hrs by MTT assay; settings: NCI-H460, 72 h

SMILES | IC50 (HT-29) [nM] | IC50 (A549) [nM] | IC50 (MDA-MB-231) [nM] | IC50 (HeLa) [nM] | IC50 (NCI-H460) [nM]
C[C@H]1[C@H](NC(=O)COCc2ccc(C(=O)/C=C/c3cccc(OC(F)(F)F)c3)cc2)O[C@@H]2O[C@@]3(C)CC[C@H]4[C@H](C)CC[C@@H]1[C@@]24OO3 | 100 | 100 | 100 | 100 | 100
C[C@H]1[C@@H](NC(=O)COCc2ccc(C(=O)/C=C/c3cccc(Cl)c3Cl)cc2)O[C@@H]2O[C@@]3(C)CC[C@H]4[C@H](C)CC[C@@H]1[C@@]24OO3 | 90 | 90 | 90 | 90 | 90
C[C@H]1[C@@H](NC(=O)COCc2ccc(/C=C/C(=O)c3cccc(Cl)c3)cc2)O[C@@H]2O[C@@]3(C)CC[C@H]4[C@H](C)CC[C@@H]1[C@@]24OO3 | 1700 | 1700 | 1700 | 1700 | 1700
COc1cccc(/C=C/C(=O)c2ccc(COCC(=O)N[C@@H]3O[C@@H]4O[C@@]5(C)CC[C@H]6[C@H](C)CC[C@@H]([C@H]3C)[C@@]46OO5)cc2)c1 | 100 | 100 | 100 | 100 | 100
C[C@H]1[C@@H](NC(=O)COCc2ccc(/C=C/C(=O)c3ccc(C(F)(F)F)cc3)cc2)O[C@@H]2O[C@@]3(C)CC[C@H]4[C@H](C)CC[C@@H]1[C@@]24OO3 | 1700 | 1700 | 1700 | 1700 | 1700
C[C@H]1[C@H](NC(=O)COCc2ccc(C(=O)/C=C/c3ccc(F)cc3F)cc2)O[C@@H]2O[C@@]3(C)CC[C@H]4[C@H](C)CC[C@@H]1[C@@]24OO3 | 100 | 100 | 100 | 100 | 100
C[C@H]1[C@@H](NC(=O)COCc2ccc(C(=O)/C=C/c3ccc(F)cc3)cc2)O[C@@H]2O[C@@]3(C)CC[C@H]4[C@H](C)CC[C@@H]1[C@@]24OO3 | 90 | 90 | 90 | 90 | 90
COc1ccc(/C=C/C(=O)c2ccc(COCC(=O)N[C@@H]3O[C@@H]4O[C@@]5(C)CC[C@H]6[C@H](C)CC[C@@H]([C@H]3C)[C@@]46OO5)cc2)c(OC)c1OC | 100 | 100 | 100 | 100 | 100
C[C@H]1[C@H](NC(=O)COCc2ccc(C(=O)/C=C/c3ccccc3F)cc2)O[C@@H]2O[C@@]3(C)CC[C@H]4[C@H](C)CC[C@@H]1[C@@]24OO3 | 100 | 100 | 100 | 100 | 100
C[C@H]1[C@@H](NC(=O)COCc2ccc(C(=O)/C=C/c3ccc(F)c(F)c3)cc2)O[C@@H]2O[C@@]3(C)CC[C@H]4[C@H](C)CC[C@@H]1[C@@]24OO3 | 90 | 90 | 90 | 90 | 90
C[C@H]1[C@@H](NC(=O)COCc2ccc(C(=O)/C=C/c3ccc(OC(F)(F)F)cc3)cc2)O[C@@H]2O[C@@]3(C)CC[C@H]4[C@H](C)CC[C@@H]1[C@@]24OO3 | 90 | 90 | 90 | 90 | 90
COc1ccc(OC)c(/C=C/C(=O)c2ccc(COCC(=O)N[C@@H]3O[C@@H]4O[C@@]5(C)CC[C@H]6[C@H](C)CC[C@@H]([C@H]3C)[C@@]46OO5)cc2)c1 | 100 | 100 | 100 | 100 | 100
C[C@H]1[C@@H](NC(=O)COCc2ccc(C(=O)/C=C/c3cccc(OC(F)(F)F)c3)cc2)O[C@@H]2O[C@@]3(C)CC[C@H]4[C@H](C)CC[C@@H]1[C@@]24OO3 | 90 | 90 | 90 | 90 | 90
COc1cccc(/C=C/C(=O)c2ccc(COCC(=O)N[C@H]3O[C@@H]4O[C@@]5(C)CC[C@H]6[C@H](C)CC[C@@H]([C@H]3C)[C@@]46OO5)cc2)c1 | 90 | 90 | 90 | 90 | 90
C[C@H]1[C@H](NC(=O)COCc2ccc(C(=O)/C=C/c3ccc(F)c(F)c3)cc2)O[C@@H]2O[C@@]3(C)CC[C@H]4[C@H](C)CC[C@@H]1[C@@]24OO3 | 100 | 100 | 100 | 100 | 100
C[C@H]1[C@@H](NC(=O)COCc2ccc(/C=C/C(=O)c3ccccc3)cc2)O[C@@H]2O[C@@]3(C)CC[C@H]4[C@H](C)CC[C@@H]1[C@@]24OO3 | 1700 | 1700 | 1700 | 1700 | 1700
